Patent US20030166548A1, “PLAP polypeptides and methods of producing and using same” (Board of Regents, The University of Texas System, priority 1997, published 2003)
“And” between values parts separate entries of the source, which are not always exact repeats. Equal entries are not always repeated.

Experiments:
[1] = molecular target: PLA2 of synovial fluid from rheumatoid arthritis patients (human (rheumatoid arthritis patients)) (UniProt P14555); test: cell-based or functional assay
human serum PLA2 (human) [2] = molecular target: human serum PLA2 (human) (UniProt P04054); test: cell-based or functional assay
human serum PLA2 (human) [3] = molecular target: human serum PLA2 (human) (UniProt P04054)
[4] = test system: PLA2 from synovial fluid from rheumatoid arthritis patients; test: PLA2 assay using [3H]-oleic acid labeled E. coli; format: biochemical, human; conditions: Synovial F., peptide 1 μg
Procedure: (§1) PLA2 activity may also be assayed using [^3H]-oleic acid labeled Escherichia coli, in a modification of the procedure previously described by [Elsbach and Weiss, 1991]. E. coli cells grown in the presence of [^3H]-oleic acid are incubated with PLA2 enzyme. The reaction is quenched either by addition of 1M HCl or by dilution in cold phosphate buffered saline (PBS). The amount of [^3H]-oleic acid released from the E. coli cells by PLA2 is measured using scintillation counting.
The procedure is a modification of that described by Elsbach and Weiss (1991). E. coli strain SJ198 was grown in 10 ml M9 minimal medium plus 50 μl glycerol, 100 μl vitamin mix, 40 μl methionine (25 mg/ml), 50 μl [^3H]-oleic acid (0.1 μCi/μl), and 100 μl casamino acids (100 mg/ml). After incubation at 37° C. overnight, the culture was centrifuged and washed three times in PBS, autoclaved for 15 minutes, washed again three times in PBS and stored at −70° C. The reaction mixture contained 10 μl of 5×assay of the PLA2 enzyme preparation, 10 μl of [^3H]-oleic acid-labeled E. coli cells, and enough H2O to adjust the total volume to 50 μl. The reaction mixture was incubated for 15 minutes at 37° C. in a waterbath. To stop the reaction, the tubes were transferred immediately to an ice bath and an equal volume of either 1 M HCl or 4 volumes cold PBS was added. […]

phospholipase D (PLD) = test: Synthetic melittin added to dissociated membranes from U-937 cells; format: biochemical; conditions: dissociated membranes from human monocyte cell line U-937
Human serum PLA2 = test: PLA2 assay of human serum fractions eluted from MLT-Sepharose column, [3H]-oleic acid-labeled E. coli substrate; format: biochemical; conditions: for PLA2 activity: Melittin 5 μM
Procedure: (§2) The procedure is a modification of that described by Elsbach and Weiss (1991). E. coli strain SJ198 was grown in 10 ml M9 minimal medium plus 50 μl glycerol, 100 μl vitamin mix, 40 μl methionine (25 mg/ml), 50 μl [^3H]-oleic acid (0.1 μCi/μl), and 100 μl casamino acids (100 mg/ml). After incubation at 37° C. overnight, the culture was centrifuged and washed three times in PBS, autoclaved for 15 minutes, washed again three times in PBS and stored at −70° C. The reaction mixture contained 10 μl of 5×assay of the PLA2 enzyme preparation, 10 μl of [^3H]-oleic acid-labeled E. coli cells, and enough H2O to adjust the total volume to 50 μl. The reaction mixture was incubated for 15 minutes at 37° C. in a waterbath. To stop the reaction, the tubes were transferred immediately to an ice bath and an equal volume of either 1 M HCl or 4 volumes cold PBS was added. After centrifugation in a microfuge at 4° C. for 10 minutes, an aliquot equal to 25% of the volume of the supernatant was used to measure the amount of [^3H]-labeled oleic acid released from the E. coli cells by PLA2 using liquid scintillation counting.
Isolation of PLA2 from human serum: 10 ml of heat-inactivated human serum Gemini Bio Product Inc. (Calabasas, Calif.) was diluted 1:10 with PBS and loaded onto Melittin-Sepharose as well as PLAP-Sepharose columns pre-equilibrated with PBS. Columns were washed with 500 ml of PBS overnight and eluted with 0.5M glycine/HCl buffer, pH 2.8 and 2 ml fractions were collected, neutralized to pH 7.2 with Tris-HCl buffer and analyzed for PLA2 activity using [^3H]labeled oleic acid—E. coli cells as substrate. Eluted fractions were concentrated and dialyzed in centricon 10 (Amicon, Inc., Beverly, Mass.) and the pass through was discarded. The retentate was again passed through centricon 30 and concentrated to about ⅕th of the volume. Both retentate and pass through were subjected to PLA2, assay with and without melittin.

PLA2 from bee venom [5] = molecular target: T1, PLA2 from bee venom (Apis mellifera, UniProt P00630); format: biochemical
PLA2 from bee venom [6] = molecular target: T1, PLA2 from bee venom; test: biochemical; format: biochemical
[7] = molecular target: T2, PLA2 from bovine pancreas (Bos taurus, UniProt P00593); test: PLA2 assay using [3H]-oleic acid labeled E. coli; format: biochemical; conditions: Bovine P., peptide 1 μg
Procedure: as §1, §2

PLA2 from snake venom [8] = test: PLA2 assay using [3H]-oleic acid labeled E. coli; format: biochemical; conditions: Snake V., peptide 1 μg
Procedure: as §1, §2

[9] = molecular target: T2, PLA2 from bovine pancreas; test: PLA2 assay using unsonicated vesicles; format: biochemical; conditions: Bovine P., peptide 1 μg
Procedure: (§3) In general, assays involve incubation of purified PLA2 or a mixture believed to contain PLA2, such as synovial fluid, with a PLA2 substrate containing radio-labeled arachidonic acid in the presence of the inhibitor of interest. Suitable substrates for PLA2 reactions include any glycerol-3-phosphate with arachidonic acid substituted at the sn-2 position. The preferred substrates of the assays of this invention include [^14C]-arachidonic acid-substituted phosphatidylcholine or [^14C]-arachidonic acid-substituted phosphatidylethanolamine. After the reaction is stopped by addition of chloroform and methanol, TLC chromatography is used to separate the released [^14C] arachidonic acid from [^14C] arachidonic acid-labeled phosphatidylcholine/ethanolamine, which may be quantified by scintillation counting.
(§4) Radiolabeled phosphatidylcholine or phosphatidylethanolamine containing [^14C]-arachidonic acid in the sn-2 position of the phospholipid was dried under nitrogen and the lipid vesicles were prepared in 0.05% Triton X-100. The reaction mixture contained 10 μl of phospholipid substrate, 10 μl of 5× assay buffer (500 mM Tris[hydroxymethyl]aminomethane […]HCl (Tris HCl), pH 8.0; 500 mM NaCl; 5.0% fatty acid-free bovine serum albumin (BSA); and 5 mM CaCl2), 10 μl PLA2 enzyme preparation, and sufficient H2O to adjust the total volume to 50 μl The reaction mixture was incubated for 30 minutes at 37° C. in a waterbath and stopped by the addition of 50 μl of chloroform and methanol (1:3), containing 200 μg/ml of unlabeled arachidonic acid and then the mixture was vortexed Lipid was extracted by adding 50 μl of chloroform and 50 μl of 4M KCl, after which, the mixture was vortexed and centrifuged in a microfuge at 14,000 rpm for 10 minutes A 25 μl aliquot of the organic phase was spotted onto glass silica gel plates (Whatman LK6DF) and placed in a thin layer chromatography chamber with a solvent system containing petroleum ether, diethyl ether, and acetic acid (5:25:1) for 30 minutes. The lipid spots were made visible by placing the silica gel plates in a chamber containing iodine vapor. The silica gel region corresponding to arachidonic acid was scraped and transferred to scintillation vials containing 10 ml of scintillation cocktail, which is commercially available and designed to measure the amount of radioactivity in aqueous samples when used with a liquid scintillation counter. The amount of radionuclide corresponding to [^14C]-arachidonic acid in each vial was determined in a Beckman liquid scintillation counter. Results of these assays are shown in Tables 1 and 2 listed after Example 3.

PLA2 from snake venom [10] = test: PLA2 assay using unsonicated vesicles; format: biochemical; conditions: Snake V., peptide 1 μg
Procedure: as §3, §4

[11] = molecular target: T3, affinity-purified PLA2 enzyme isolated from synovial fluid of rheumatoid arthritis patients (Homo sapiens, UniProt P14555); test: PLA2 assay, unsonicated vesicles labeled with [14C]-phosphatidylcholine, affinity-purified enzyme; format: biochemical
T3 construct: from tissue
T3 sequence (P14555 21-144): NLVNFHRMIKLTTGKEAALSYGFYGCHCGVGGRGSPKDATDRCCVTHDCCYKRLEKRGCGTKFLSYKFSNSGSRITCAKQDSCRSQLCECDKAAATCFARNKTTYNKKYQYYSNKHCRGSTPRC
Procedure: as §4

[12] = test system: PLA2 from synovial fluid from rheumatoid arthritis patients; test: PLA2 assay using unsonicated vesicles; format: biochemical, human; conditions: Synovial F., peptide 1 μg
Procedure: as §3
Radiolabeled phosphatidylcholine or phosphatidylethanolamine containing [^14C]-arachidonic acid in the sn-2 position of the phospholipid was dried under nitrogen and the lipid vesicles were prepared in 0.05% Triton X-100. […] The silica gel region corresponding to arachidonic acid was scraped and transferred to scintillation vials containing 10 ml of scintillation cocktail, which is commercially available and designed to measure the amount of radioactivity in aqueous samples when used with a liquid scintillation counter. […]

[13] = molecular target: T3, affinity-purified PLA2 enzyme isolated from synovial fluid of rheumatoid arthritis patients; test: PLA2 assay, [3H]-oleic acid-E. coli, affinity-purified enzyme; format: biochemical; conditions: mean of three determinations
Procedure: as §2

synovial fluid PLA2 = test: Interference of streptavidin-peroxidase binding to biotin-melittin by synovial fluid PLA2; parameters: species or system human; conditions: plate coated with biotinylated synthetic melittin, FIG. 6B
[14] = molecular target: T4, bee venom PLA2 (bee), P00630; test: cell-based or functional assay
T4 chain: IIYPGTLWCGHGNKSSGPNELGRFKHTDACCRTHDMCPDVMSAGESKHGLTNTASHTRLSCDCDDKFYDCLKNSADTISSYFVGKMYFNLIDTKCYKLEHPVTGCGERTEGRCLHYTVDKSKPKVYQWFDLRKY

[15] = C: [3H]-oleic acid-labeled E. coli, stopped with cold PBS
[16] = D: [3H]-oleic acid-labeled E. coli, stopped with 1N HCl
[17] = A: [14C]-phosphatidylcholine vesicles
[18] = B: phosphatidylethanolamine vesicles

T2 sequence (P00593 23-145): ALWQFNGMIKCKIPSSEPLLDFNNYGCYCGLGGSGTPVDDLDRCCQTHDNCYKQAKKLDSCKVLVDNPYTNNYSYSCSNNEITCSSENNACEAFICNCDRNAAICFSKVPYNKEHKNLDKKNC
Chain of human serum PLA2 (human) (P04054 23-148 limits assumed): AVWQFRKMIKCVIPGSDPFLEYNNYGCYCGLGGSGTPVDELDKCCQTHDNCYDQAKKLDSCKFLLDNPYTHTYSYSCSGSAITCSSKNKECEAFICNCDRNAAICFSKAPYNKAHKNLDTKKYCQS

Molecule: synthetic melittin (peptide)
- Inhibitory Potency [1]: 80%
- reduction in PLA2 activity in the presence of melittin (human serum PLA2 (human) [2]): 4 fold
- Purification (human serum PLA2 (human) [3]): 1520 fold

Molecule: CC[C@H](C)[C@H](NC(=O)CN)C(=O)NCC(=O)N[C@@H](C)C(=O)N[C@H](C(=O)N[C@@H](CC(C)C)C(=O)N[C@@H](CCCCN)C(=O)N[C@H](C(=O)N[C@@H](CC(C)C)C(=O)N[C@H](C(=O)N[C@H](C(=O)NCC(=O)N[C@@H](CC(C)C)C(=O)N1CCC[C@H]1C(=O)N[C@@H](C)C(=O)N[C@@H](CC(C)C)C(=O)N[C@H](C(=O)N[C@@H](CO)C(=O)N[C@@H](Cc1c[nH]c2ccccc12)C(=O)N[C@H](C(=O)N[C@@H](CCCCN)C(=O)N[C@@H](CCCNC(=N)N)C(=O)N[C@@H](CCCCN)C(=O)N[C@@H](CCCNC(=N)N)C(=O)N[C@@H](CCC(N)=O)C(=O)N[C@@H](CCC(N)=O)C(N)=O)[C@@H](C)CC)[C@@H](C)CC)[C@@H](C)O)[C@@H](C)O)C(C)C)C(C)C [Melittin]
- Phospholipase A2 activity [4, 15]: 5.5 ± 0.4 µmol/min/mL
- Phospholipase A2 activity [4, 16]: 43.65 ± 3.19 µmol/min/mL
- effect on phospholipase D (PLD) (phospholipase D (PLD)): stimulates PLD
- effect on phospholipase D (PLD) (phospholipase D (PLD); listed as synthetic melittin): resulted in the formation of phosphatidic acid and release of arachidosic acid
- PLA2 activity (Human serum PLA2; Human serum PLA2 eluted from MLT-Sepharose column): 219 ± 16.3 nano mol/min/ml
- PLA2 activity (Human serum PLA2; eluate Centricon 30 concentrated (5 times)): 192 ± 5.44 nano mol/min/ml
- PLA2 activity (Human serum PLA2; eluate Centricon 30 pass through): 172 ± 8.73 nano mol/min/ml
- reduction in PLA2 activity in the presence of melittin (Human serum PLA2; fractions after concentration by centricon 10 or 30): 4 fold
- type of inhibition of bee venom PLA2 (PLA2 from bee venom [5]): noncompetitive inhibitor
- EC50 (PLA2 from bee venom [6]): 20 nM
- Phospholipase A2 activity (PLA2 from bee venom [6]): 801 ± 55.0 μmoles/min/mg of protein and 1315.0 ± 48.2 μmoles/min/mg of protein
- amount of synthetic melittin required to inhibit maximal PLA2 activity (PLA2 from bee venom [6]): 30 mM
- Phospholipase A2 activity [7, 15]: 0.06 ± 0.03 μmoles/min/mg of protein
- Phospholipase A2 activity [7, 16]: 1.51 ± 0.17 μmoles/min/mg of protein
- Phospholipase A2 activity (PLA2 from snake venom [8]; [15]): 61.5 ± 2.75 μmoles/min/mg of protein
- Phospholipase A2 activity (PLA2 from snake venom [8]; [16]): 59.13 ± 13.97 μmoles/min/mg of protein
- Phospholipase A2 activity [9, 17]: 3.6 ± 0.9 × 10^−5 μmoles/min/mg of protein
- Phospholipase A2 activity [9, 18]: 2.96 ± 0.0 × 10^−3 μmoles/min/mg of protein
- Phospholipase A2 activity (PLA2 from snake venom [10]; [17]): 1.41 ± 0.84 μmoles/min/mg of protein
- Phospholipase A2 activity (PLA2 from snake venom [10]; [18]): 0.05 ± 0.03 μmoles/min/mg of protein
- Inhibitory Potency ([11]; Table 2A, follows Table 2): 80%
- Phospholipase A2 activity B(× 10^−3) [14C]-phosphatidylcholine ([11]; peptide 1.0 μM, mean of three determinations): 0.055 ± 0.010 × 10^−3 μ moles/min/ml
- order of inhibitory potency ([11]; rank order from Table 2): MLT>G25>G22>G141>G27>G23
- Phospholipase A2 activity [12, 17]: 2.9 ± 0.0 × 10^−4 μmole/min ml
- Phospholipase A2 activity [12, 18]: 4.7 ± 0.0 × 10^−4 μmole/min ml
- Phospholipase A2 activity C [3H]-oleic acid-E. coli ([13]; peptide 1.0 μM): 0.50 ± 0.12 μ moles/min/ml
- Phospholipase A2 activity C [3H]-oleic acid-E. coli ([13]; peptide 5.0 μM): 0.12 ± 0.02 μ moles/min/ml
- Phospholipase A2 activity C [3H]-oleic acid-E. coli ([13]; peptide 10 μM): 0.06 ± 0.03 μ moles/min/ml

Molecule: biotinylated synthetic melittin: biotinylated synthetic melittin used to coat microtiter plates
- interference of synovial fluid with streptavidin-peroxidase binding (synovial fluid PLA2): dose-dependent interference

Molecule: GIGAVLKVLTTGLPALISWIKRKRQQ (modifications not checked) [synthetic melittin]
- molar ratio of melittin to PLA2 at maximal inhibition (mol melittin per mol PLA2) [14]: 30
